Source: patent US20180251431A1 (VERTEX PHARMACEUTICALS INCORPORATED, priority 2016, published 2018)
Like-named read-outs stand apart in the source and are kept apart here.

Tests used:
[1] = system: ALD patient fibroblasts; assay: Reduction in C26:0 LPC in ALD patient fibroblasts in vitro; assay type: cell-based, human; conditions: Patient Fibroblast (CALD 1), half maximal reduction in C26:0 LPC, each number a separate measurement
Protocol: Lysophosphatidylcholine (LPC) VLCFA were generated from straight chain VLCFA (SC-VLCFA) and were used clinically for newborn screening (Vogel et al., Mol. Genet. Metab. (2015) 114(4):599-603). In vitro efficacy studies were performed by measuring LPC VLCFA level (measured as LPC synthesis) in various cell lines, specifically in 1) human HEK cells, 2) patient derived cells, and 3) human microglia, which are disease relevant CNS cells. Compound 87's dose response relationships and IC50 values were measured in HEK cells, primary patient fibroblasts, immortalized patient lymphocytes, and a human microglial cell line. […]
Primary patient fibroblasts were obtained from Coriell Institute for Medical Research. […] The plate was sealed with a plate tape and put at −80° C. for further VLCFA extraction and VLCFA quantitation on LC-MS, as described below.
VLCFA Extraction and Quantitation on LCMS:
Treated cells were transferred to a polypropylene v-bottom plate and then centrifuged at 1690×g for 10 minutes. […] The plates were then sealed with pierceable capmats (Micronic MP53017) and stored at −20° C. until further analyzed using UPHLC/Mass Spectrometry Readout, as described above in example 2.1, which measured the integration of ^13C into lysophosphatidylcholine (LPC) indicated fatty acid elongation. […]

[2] = Body weight and adverse effects during treatment in the thermal sensitivity studies; assay type: in vivo, mouse; conditions: ABCD1 KO mice, prophylactic (5 or 20 mg/kg) and therapeutic (32 or 64 mg/kg) PO QD experiments
Protocol: For the prophylactic study, mice were tested beginning at 10 months of age (before the loss of pain sensitivity) using doses of either 5 or 20 mg/kg. For the therapeutic study, mice were tested beginning at 18 months of age, after there was already a significant loss of pain sensitivity, using doses of either 32 or 64 mg/kg. […] The Plantar test (using a Hargreaves apparatus) was used and measured the latency to respond to a thermal stimulus using the following protocol. An individual mouse was placed into an individual compartment with a glass floor for about 10-15 minutes until they were settled. Each individual mouse was given three trials with an infrared source on each hind paw (alternated hind paws each time, and waited 5 minutes between each trial). The infrared source was placed under the glass floor and was positioned by the operator directly beneath the hind paw. A trial was commenced by depressing a key/button which turned on the infrared source and started a digital timer. When a response was observed (paw withdrawal), the key/button was released and the latency to respond was recorded (in seconds).

[3] = Blood exposure (AUC) in the 28-day oral dosing study in mice; assay type: in vivo; conditions: ABCD1 knockout (KO), mouse, whole blood (dried blood spots), read-out: Blood area under the concentration time-curve (AUC)

## O=C(Nc1ccn(-c2ccnc(F)c2)n1)C1(c2ccccc2F)CC1 [Compound 87, 1-(2-fluorophenyl)-N-[1-(2-fluoro-4-pyridyl)pyrazol-3-yl]cyclopropanecarboxamide]
[1]; Homo sapiens, Fibroblast
  IC50: 17 nM
[1]
  IC50: 23 nM
[2]
  body weight and adverse effects during treatment: did not have a significant drop in body weight or any other noticeable adverse effect
[3]; 4 mg/kg PO QD
  AUC: 1950 ng·h/mL
[3]; 8 mg/kg PO QD
  AUC: 3490 ng·h/mL
